Results reported in US9133207B2, “Tetrandrine derivatives with substituted 5-carbon, preparation method and use thereof” (Hangzhou Bensheng Pharmaceutical Co., Ltd., priority 2011, dated 2015).
Converted amounts (≈) assume the structure as drawn.

Assays:
[1] = test system: PC-3 (prostate cancer); assay: Solid tumor cell growth inhibition, MTT, 72 h (Example 7); type: cell-based, human; details: Homo sapiens; 72 h, MTT, PC-3
How it was run: (§1)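 Seeded 4000 cells/well, DMEM HG/10% FBS, 24 h at 37 °C/5% CO2; dosed with derivatives (multiple conc.); 72 h; MTT; % viability normalised to untreated = 100%.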

[2] = test system: PANC-1 (pancreatic cancer); assay: as above; type: cell-based, human; details: Homo sapiens; 72 h, MTT, PANC-1
How it was run: as §1

[3] = test system: Hep-2 (laryngeal carcinoma); assay: as above; type: cell-based, human; details: Homo sapiens; 72 h, MTT, Hep 2
How it was run: as §1

[4] = test system: CaES-17 (esophageal cancer cell); assay: as above; type: cell-based, human; details: Homo sapiens, CaEs17; 72 h, MTT, CAES-17
How it was run: as §1

[5] = test system: MG63 (osteosarcoma); assay: as above; type: cell-based, human; details: Homo sapiens; 72 h, MTT, MG-63
How it was run: as §1

[6] = test system: K562/adr (drug-resistant, chronic myeloid leukemia, CML); assay: Leukemia cell growth inhibition, MTT, 72 h (Example 5); type: cell-based, human; details: Homo sapiens, K562/Adr; 72 h, MTT
How it was run: (§2)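 6000 cells/well in RPMI 1640 with 10% FBS exposed to graded derivative concentrations for 72 h at 37 °C, 5% CO2. Viable cell concentration then measured by MTT.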

[7] = test system: NB4 (acute promyelocytic leukemia, AML); assay: as above; type: cell-based, human; details: Homo sapiens; 72 h, MTT
How it was run: as §2

[8] = test system: H9 (acute lymphoblastic leukemia, ALL); assay: as above; type: cell-based, human; details: Homo sapiens; 72 h, MTT
How it was run: as §2

[9] = test system: Jurkat (acute lymphoblastic leukemia, ALL); assay: as above; type: cell-based, human; details: for IC50 / IC90: Homo sapiens, Jurkat, 72 h, MTT
How it was run: as §2

[10] = test system: Kasumi-1 (acute myeloid leukemia M2 type, AML-M2); assay: as above; type: cell-based, human; details: Homo sapiens, Kasumi 1
How it was run: as §2

[11] = test system: RPMI8226 (multiple myeloma); assay: Multiple myeloma cell growth inhibition, MTT, 72 h (Example 6); type: cell-based, human; details: Homo sapiens, RPMI-8226; 72 h, MTT, RPMI8226
How it was run: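 RPMI8226 cells (6000 per well) in RPMI 1640 with 10% FBS were exposed to a range of tetrandrine derivative concentrations for 72 h at 37 °C under 5% CO2. Viable cell concentration was then measured by MTT.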

[12] = test system: A549 (human lung cancer); assay: Solid tumor cell growth inhibition, MTT, 72 h (Example 7); type: cell-based; details: Homo sapiens; 72 h, MTT, A549
How it was run: as §1

[13] = test system: SK-OV-3 (ovarian cancer cell); assay: as above; type: cell-based; details: Homo sapiens
How it was run: as §1

[14] = test system: Hela (human cervical cancer cell); assay: as above; type: cell-based; details: Homo sapiens; 72 h, MTT, Hela
How it was run: as §1

[15] = test system: RKO (human colon adenocarcinoma cell); assay: as above; type: cell-based; details: Homo sapiens; 72 h, MTT, RKO
How it was run: as §1

[16] = test system: CNE (nasopharyngeal carcinoma cell); assay: as above; type: cell-based; details: Homo sapiens
How it was run: as §1

[17] = test system: Becap37 (human breast cancer cell); assay: as above; type: cell-based; details: Homo sapiens; 72 h, MTT, Becap-37
How it was run: as §1

[18] = test system: Huh7 (human liver cancer cell); assay: as above; type: cell-based; details: Homo sapiens; 72 h, MTT, Huh-7
How it was run: as §1

[19] = test system: MGC 803 (human gastric cancer cell); assay: as above; type: cell-based; details: Homo sapiens
How it was run: as §1

[20] = test system: U87 MG (malignant glioma cell); assay: as above; type: cell-based; details: Homo sapiens, U-87 MG
How it was run: as §1

Compound: COc1ccc2cc1Oc1ccc(cc1)C[C@H]1c3cc(c(OC)cc3CCN1C)Oc1c(OC)c(OC)c(CNCc3ccc(C)o3)c3c1[C@H](C2)N(C)CC3 [BS-TE-358]
- IC50 [1]: 3.7 µg/mL (≈ 4.96 µM)
- IC90 [1]: 5.9 µg/mL (≈ 7.91 µM)
- IC50 [2]: 2.66 µg/mL (≈ 3.57 µM)
- IC90 [2]: 9.71 µg/mL (≈ 13 µM)
- IC50 [3]: 3.37 µg/mL (≈ 4.52 µM)
- IC90 [3]: 7.54 µg/mL (≈ 10.1 µM)
- IC50 [4]: 2.69 µg/mL (≈ 3.61 µM)
- IC90 [4]: 10.1 µg/mL (≈ 13.5 µM)
- IC50 [5]: 1.5 µg/mL (≈ 2.01 µM)
- IC90 [5]: 2.8 µg/mL (≈ 3.75 µM)
- IC50 [6]: 0.63 µg/mL (≈ 0.845 µM)
- IC90 [6]: 3.15 µg/mL (≈ 4.22 µM)
- IC50 [7]: 0.8 µg/mL (≈ 1.07 µM)
- IC90 [7]: 2 µg/mL (≈ 2.68 µM)
- IC50 [8]: 1.45 µg/mL (≈ 1.94 µM)
- IC90 [8]: 2.4 µg/mL (≈ 3.22 µM)
- IC50 [9]: 0.55 µg/mL (≈ 0.737 µM)
- IC90 [9]: 4 µg/mL (≈ 5.36 µM)
- anti-Jurkat activity increase over tetrandrine ([9]; compared with tetrandrine): ~4 fold
- IC50 [10]: 1.1 µg/mL (≈ 1.47 µM)
- IC90 [10]: 3.71 µg/mL (≈ 4.97 µM)
- IC50 [11]: 0.08 µg/mL (≈ 0.107 µM)
- IC90 [11]: 3.69 µg/mL (≈ 4.95 µM)
- IC50 [12]: 4 µg/mL (≈ 5.36 µM)
- IC90 [12]: 16 µg/mL (≈ 21.5 µM)
- IC50 [13]: 4 µg/mL (≈ 5.36 µM)
- IC90 [13]: > 16 µg/mL
- IC50 [14]: 2.12 µg/mL (≈ 2.84 µM)
- IC90 [14]: 3.97 µg/mL (≈ 5.32 µM)
- IC50 [15]: 0.6 µg/mL (≈ 0.804 µM)
- IC90 [15]: 1.67 µg/mL (≈ 2.24 µM)
- IC50 [16]: 2.26 µg/mL (≈ 3.03 µM)
- IC90 [16]: 4.12 µg/mL (≈ 5.52 µM)
- IC50 [17]: 1.96 µg/mL (≈ 2.63 µM)
- IC90 [17]: 4.5 µg/mL (≈ 6.03 µM)
- IC50 [18]: 1.35 µg/mL (≈ 1.81 µM)
- IC90 [18]: 1.92 µg/mL (≈ 2.57 µM)
- IC50 [19]: 1.39 µg/mL (≈ 1.86 µM)
- IC90 [19]: 7.08 µg/mL (≈ 9.49 µM)
- IC50 [20]: 0.65 µg/mL (≈ 0.871 µM)
- IC90 [20]: 1.99 µg/mL (≈ 2.67 µM)

Compound: COc1ccc2cc1Oc1ccc(cc1)C[C@H]1c3cc(c(OC)cc3CCN1C)Oc1c(OC)c(OC)c(CN3CCC(C#N)CC3)c3c1[C@H](C2)N(C)CC3 [BS-TE-323]
- IC50 [1]: 1.88 µg/mL (≈ 2.52 µM)
- IC90 [1]: 3.83 µg/mL (≈ 5.14 µM)
- IC50 [2]: 2.46 µg/mL (≈ 3.3 µM)
- IC90 [2]: 7.1 µg/mL (≈ 9.53 µM)
- IC50 [3]: 2.49 µg/mL (≈ 3.34 µM)
- IC90 [3]: 5.59 µg/mL (≈ 7.5 µM)
- IC50 [4]: 3.6 µg/mL (≈ 4.83 µM)
- IC90 [4]: 23 µg/mL (≈ 30.9 µM)
- IC50 [5]: 2.6 µg/mL (≈ 3.49 µM)
- IC90 [5]: 5.5 µg/mL (≈ 7.38 µM)
- IC50 [6]: 0.21 µg/mL (≈ 0.282 µM)
- IC90 [6]: 2.16 µg/mL (≈ 2.9 µM)
- IC50 [7]: 1.5 µg/mL (≈ 2.01 µM)
- IC90 [7]: 4.5 µg/mL (≈ 6.04 µM)
- IC50 [8]: 0.95 µg/mL (≈ 1.28 µM)
- IC90 [8]: 2.13 µg/mL (≈ 2.86 µM)
- IC50 [9]: 1.28 µg/mL (≈ 1.72 µM)
- IC90 [9]: 9 µg/mL (≈ 12.1 µM)
- IC50 [10]: 1.23 µg/mL (≈ 1.65 µM)
- IC90 [10]: 4.6 µg/mL (≈ 6.18 µM)
- IC50 [11]: 0.12 µg/mL (≈ 0.161 µM)
- IC90 [11]: 3.88 µg/mL (≈ 5.21 µM)
- IC50 [12]: 6.2 µg/mL (≈ 8.32 µM)
- IC90 [12]: 16 µg/mL (≈ 21.5 µM)
- IC50 [13]: 8 µg/mL (≈ 10.7 µM)
- IC90 [13]: > 16 µg/mL
- IC50 [14]: 1.2 µg/mL (≈ 1.61 µM)
- IC90 [14]: 3.89 µg/mL (≈ 5.22 µM)
- IC50 [15]: 1.07 µg/mL (≈ 1.44 µM)
- IC90 [15]: 2.6 µg/mL (≈ 3.49 µM)
- IC50 [16]: 4.8 µg/mL (≈ 6.44 µM)
- IC90 [16]: 10.4 µg/mL (≈ 14 µM)
- IC50 [17]: 3.2 µg/mL (≈ 4.3 µM)
- IC90 [17]: 8 µg/mL (≈ 10.7 µM)
- IC50 [18]: 1.33 µg/mL (≈ 1.79 µM)
- IC90 [18]: 3.88 µg/mL (≈ 5.21 µM)
- IC50 [19]: 3.04 µg/mL (≈ 4.08 µM)
- IC90 [19]: 8 µg/mL (≈ 10.7 µM)
- IC50 [20]: 0.98 µg/mL (≈ 1.32 µM)
- IC90 [20]: 4.02 µg/mL (≈ 5.4 µM)
